{
  "source": "paper PMC6386598",
  "about": "(Cell chemical biology, 2018)",
  "assay": "Calcein leakage from SUVs, stated for several vesicle compositions together",
  "conditions": "control peptide; all SUVs tested: PC:PE (60:40), PC:PE (80:20), PC:PG (60:40)",
  "data": [
    {"substance": "melittin", "values": [
      {"measurement": "calcein leakage (in words)", "result": "induced calcein leakage from all SUVs tested"}
    ]}
  ]
}
